Experimental data taken from publication PMC9777575, “Exploring the Promotive Effects and Mechanisms of Different Polyphenolic Extracts from Prinsepia utilis Royle Seed Shell on Tyrosinase” (Foods, 2022).

Key:
tyrosinase = target: tyrosinase; design: method as in PMID 33782442; conditions: read-out: EC50 of activation effect on tyrosinase; cited from earlier work
[1] = target: Tyrosinase (from mushroom, EC1.14.18.1); test: Mushroom tyrosinase activity assay (L-DOPA substrate, absorbance at 475 nm); type: biochemical; conditions: effective concentration to promote relative enzyme activity at 150%, 37 °C, 30 min, read-out: EC50 of activation effect on tyrosinase
Protocol: The tyrosinase activity was determined by referring to the previously reported method with appropriate modifications. […] The reaction was carried out at 37 °C for 30 min and the absorbance values were recorded at 475 nm with a Spectra Max M5 microplate reader (Molecular Device, Sunnyvale, CA, USA). Blank group (system containing PBS, enzyme and L-DOPA solution), blank control group (system containing PBS and L-DOPA solution), and sample control group (system containing PBS, sample solution and L-DOPA solution) were also set up. The relative enzyme activity of each sample group was calculated using the following formula: Relative enzyme activity (%) = [(B1 − B2)/(A1 − A2)] × 100 where A1 = absorbance of the blank group, A2 = absorbance of the blank control group, B1 = absorbance of the sample group and B2 = absorbance of the sample control group. The effective concentration of each sample to promote relative enzyme activity at 150% was calculated as EC50 value.

mushroom tyrosinase = test: Enzyme kinetic analysis (Lineweaver-Burk) of mushroom tyrosinase; type: biochemical; conditions: sample used as substrate
Protocol: The enzyme kinetics was determined by referring to the previously reported method with appropriate modifications. […] As described in Section 2.5, a blank group, a blank control group and a sample control group were set up. The initial rate of dopachrome formation in the reaction mixture was determined as an increase in absorbance at a wavelength of 475 nm per minute by using a microplate reader. The Michaelis constant (Km) and maximal velocity (Vmax) of tyrosinase activity were determined by Lineweaver-Burk plots using different concentrations of (+)-catechin and (−)-epicatechin as substrates.

EC50 [1] [µM] | Km (mushroom tyrosinase; DOPA 1 mM) [µM] | Vm of tyrosinase activity (mushroom tyrosinase; DOPA 1 mM) | Km (mushroom tyrosinase; DOPA 1.5 mM) [µM] | Vm of tyrosinase activity (mushroom tyrosinase; DOPA 1.5 mM) | Km (mushroom tyrosinase; DOPA 2 mM) [µM] | Vm of tyrosinase activity (mushroom tyrosinase; DOPA 2 mM) | Compound | EC50 (tyrosinase) [µM]
 |  |  |  |  |  |  | O=C(CCc1ccc(O)c(O)c1)c1c(O)cc(O)c([C@@H]2O[C@H](CO)[C@@H](O)[C@H](O)[C@H]2O)c1O [Aspalathin] | 265 ± 4.56
36.7 ± 0.43 | 11.2 | 85.47 | 11.7 | 80.00 | 18 | 71.94 | Oc1cc(O)c2c(c1)O[C@H](c1ccc(O)c(O)c1)[C@H](O)C2 [(−)-Epicatechin] | 
32.5 ± 1.7 | 62 | 200.00 | 74.3 | 175.44 | 87 | 158.73 | Oc1cc(O)c2c(c1)OC(c1ccc(O)c(O)c1)C(O)C2 (single isomer, unassigned; (+)) [(+)-Catechin] | 
